Results taken from the supplement of paper PMC10307832.

Legend:
Test in all cases: relative viability (nuclei count vs DMSO), 5 days (fraction); higher = more cells survive
[1] = system: 201T
In short: (§1)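 Lung cancer cell lines in 1536-well plates got either a single drug or a fixed anchor-drug dose together with five library-drug doses (not always all listed) in √10 steps, by pin tool, on the day after seeding. Nuclei were counted after 5 days, and relative viability is the treated-to-vehicle ratio of nuclei counts. Values are medians of duplicate plates.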

[2] = system: ABC-1
In short: as §1

[3] = system: BEN
In short: as §1

[4] = system: CAL-12T
In short: as §1

[5] = system: COR-L 105
In short: as §1

[6] = system: COR-L23
In short: as §1

[7] = system: EKVX
In short: as §1

[8] = system: HARA
In short: as §1

[9] = system: HCC-366
In short: as §1

[10] = system: LK-2
In short: as §1

[11] = system: LU99A
In short: as §1

[12] = system: NCI-H1437
In short: as §1

[13] = system: NCI-H1650
In short: as §1

[14] = system: NCI-H1666
In short: as §1

[15] = system: NCI-H2009
In short: as §1

[16] = system: NCI-H2023
In short: as §1

[17] = system: NCI-H2170
In short: as §1

[18] = system: NCI-H3122
In short: as §1

[19] = system: NCI-H441
In short: as §1

[20] = system: NCI-H661
In short: as §1

[21] = system: NCI-H727
In short: as §1

[22] = system: NCI-H838
In short: as §1

[23] = system: PC-14
In short: as §1

## CC(C)Oc1cc(Nc2nc(N[C@@H](C)c3ccc(F)cn3)ncc2Cl)n[nH]1 [AZ23] + C[C@@H](Oc1cc(-c2cnn(C3CCNCC3)c2)cnc1N)c1c(Cl)ccc(F)c1Cl [Crizotinib] (partner 1 µM)
[1]; first compound 0.01 µM
  relative viability: 1.06
[1]; first compound 0.03162 µM
  relative viability: 1.05
[1]; first compound 0.3162 µM
  relative viability: 1.01
[2]; first compound 0.01 µM
  relative viability: 0.752
[2]; first compound 0.03162 µM
  relative viability: 1.27
[2]; first compound 0.3162 µM
  relative viability: 1.25
[3]; first compound 0.01 µM
  relative viability: 0.855
[3]; first compound 0.03162 µM
  relative viability: 1.09
[3]; first compound 0.3162 µM
  relative viability: 0.968
[4]; first compound 0.01 µM
  relative viability: 0.324
[4]; first compound 0.03162 µM
  relative viability: 0.759
[4]; first compound 0.3162 µM
  relative viability: 0.583
[5]; first compound 0.01 µM
  relative viability: 0.618
[5]; first compound 0.03162 µM
  relative viability: 0.825
[5]; first compound 0.3162 µM
  relative viability: 0.786
[6]; first compound 0.01 µM
  relative viability: 0.763
[6]; first compound 0.03162 µM
  relative viability: 0.828
[6]; first compound 0.3162 µM
  relative viability: 0.766
[7]; first compound 0.01 µM
  relative viability: 1.05
[7]; first compound 0.03162 µM
  relative viability: 1.03
[7]; first compound 0.3162 µM
  relative viability: 1.03
[8]; first compound 0.01 µM
  relative viability: 1.2
[8]; first compound 0.03162 µM
  relative viability: 0.904
[8]; first compound 0.3162 µM
  relative viability: 0.983
[9]; first compound 0.01 µM
  relative viability: 0.688
[9]; first compound 0.03162 µM
  relative viability: 1.05
[9]; first compound 0.3162 µM
  relative viability: 0.587
[10]; first compound 0.03162 µM
  relative viability: 0.223
[10]; first compound 0.3162 µM
  relative viability: 0.216
[11]; first compound 0.01 µM
  relative viability: 0.617
[11]; first compound 0.03162 µM
  relative viability: 0.563
[11]; first compound 0.3162 µM
  relative viability: 0.6
[12]; first compound 0.01 µM
  relative viability: 1.21
[12]; first compound 0.03162 µM
  relative viability: 0.996
[12]; first compound 0.3162 µM
  relative viability: 1.03
[13]; first compound 0.01 µM
  relative viability: 0.863
[13]; first compound 0.03162 µM
  relative viability: 1.4
[13]; first compound 0.3162 µM
  relative viability: 0.984
[14]; first compound 0.01 µM
  relative viability: 1.03
[14]; first compound 0.03162 µM
  relative viability: 0.978
[14]; first compound 0.3162 µM
  relative viability: 1.02
[15]; first compound 0.01 µM
  relative viability: 1.05
[15]; first compound 0.03162 µM
  relative viability: 1.2
[15]; first compound 0.3162 µM
  relative viability: 1.06
[16]; first compound 0.03162 µM
  relative viability: 0.825
[16]; first compound 0.3162 µM
  relative viability: 0.616
[17]; first compound 0.01 µM
  relative viability: 1.67
[17]; first compound 0.03162 µM
  relative viability: 1.45
[17]; first compound 0.3162 µM
  relative viability: 1.42
[18]; first compound 0.01 µM
  relative viability: 0.28
[18]; first compound 0.03162 µM
  relative viability: 0.262
[18]; first compound 0.3162 µM
  relative viability: 0.305
[19]; first compound 0.01 µM
  relative viability: 1.15
[19]; first compound 0.03162 µM
  relative viability: 0.914
[19]; first compound 0.3162 µM
  relative viability: 0.774
[20]; first compound 0.01 µM
  relative viability: 1.1
[20]; first compound 0.03162 µM
  relative viability: 1.19
[20]; first compound 0.3162 µM
  relative viability: 1.11
[21]; first compound 0.01 µM
  relative viability: 1.01
[21]; first compound 0.03162 µM
  relative viability: 1.14
[21]; first compound 0.3162 µM
  relative viability: 0.648
[22]; first compound 0.01 µM
  relative viability: 0.702
[22]; first compound 0.03162 µM
  relative viability: 0.889
[22]; first compound 0.3162 µM
  relative viability: 0.803
[23]; first compound 0.01 µM
  relative viability: 0.896
[23]; first compound 0.03162 µM
  relative viability: 1.21
[23]; first compound 0.3162 µM
  relative viability: 0.89

## CC(C)Oc1cc(Nc2nc(N[C@@H](C)c3ccc(F)cn3)ncc2Cl)n[nH]1 [AZ23] + CS(=O)(=O)N1CCN(Cc2cc3nc(-c4cccc5[nH]ncc45)nc(N4CCOCC4)c3s2)CC1 [Pictilisib] (partner 1 µM)
[1]; first compound 0.01 µM
  relative viability: 0.685
[1]; first compound 0.03162 µM
  relative viability: 0.683
[1]; first compound 0.3162 µM
  relative viability: 0.69
[2]; first compound 0.01 µM
  relative viability: 0.634
[2]; first compound 0.03162 µM
  relative viability: 0.909
[2]; first compound 0.3162 µM
  relative viability: 0.841
[3]; first compound 0.01 µM
  relative viability: 0.527
[3]; first compound 0.03162 µM
  relative viability: 0.639
[3]; first compound 0.3162 µM
  relative viability: 0.653
[4]; first compound 0.03162 µM
  relative viability: 0.418
[4]; first compound 0.3162 µM
  relative viability: 0.406
[5]; first compound 0.01 µM
  relative viability: 0.407
[5]; first compound 0.03162 µM
  relative viability: 0.417
[5]; first compound 0.3162 µM
  relative viability: 0.383
[6]; first compound 0.01 µM
  relative viability: 0.587
[6]; first compound 0.03162 µM
  relative viability: 0.947
[6]; first compound 0.3162 µM
  relative viability: 0.862
[7]; first compound 0.01 µM
  relative viability: 0.481
[7]; first compound 0.03162 µM
  relative viability: 0.466
[7]; first compound 0.3162 µM
  relative viability: 0.444
[8]; first compound 0.01 µM
  relative viability: 0.421
[8]; first compound 0.03162 µM
  relative viability: 0.373
[8]; first compound 0.3162 µM
  relative viability: 0.282
[9]; first compound 0.01 µM
  relative viability: 0.14
[9]; first compound 0.03162 µM
  relative viability: 0.145
[9]; first compound 0.3162 µM
  relative viability: 0.147
[10]; first compound 0.03162 µM
  relative viability: 0.499
[10]; first compound 0.3162 µM
  relative viability: 0.59
[11]; first compound 0.01 µM
  relative viability: 0.292
[11]; first compound 0.03162 µM
  relative viability: 0.386
[11]; first compound 0.3162 µM
  relative viability: 0.294
[12]; first compound 0.01 µM
  relative viability: 0.374
[12]; first compound 0.03162 µM
  relative viability: 0.389
[12]; first compound 0.3162 µM
  relative viability: 0.46
[13]; first compound 0.01 µM
  relative viability: 0.553
[13]; first compound 0.03162 µM
  relative viability: 0.585
[13]; first compound 0.3162 µM
  relative viability: 0.514
[14]; first compound 0.01 µM
  relative viability: 0.51
[14]; first compound 0.03162 µM
  relative viability: 0.559
[14]; first compound 0.3162 µM
  relative viability: 0.417
[15]; first compound 0.01 µM
  relative viability: 0.943
[15]; first compound 0.03162 µM
  relative viability: 0.88
[15]; first compound 0.3162 µM
  relative viability: 0.854
[16]; first compound 0.03162 µM
  relative viability: 0.248
[16]; first compound 0.3162 µM
  relative viability: 0.192
[17]; first compound 0.01 µM
  relative viability: 0.288
[17]; first compound 0.03162 µM
  relative viability: 0.325
[17]; first compound 0.3162 µM
  relative viability: 0.304
[18]; first compound 0.01 µM
  relative viability: 0.658
[18]; first compound 0.03162 µM
  relative viability: 0.598
[18]; first compound 0.3162 µM
  relative viability: 0.579
[19]; first compound 0.01 µM
  relative viability: 0.658
[19]; first compound 0.03162 µM
  relative viability: 0.601
[19]; first compound 0.3162 µM
  relative viability: 0.457
[20]; first compound 0.01 µM
  relative viability: 0.402
[20]; first compound 0.03162 µM
  relative viability: 0.446
[20]; first compound 0.3162 µM
  relative viability: 0.423
[21]; first compound 0.01 µM
  relative viability: 0.268
[21]; first compound 0.03162 µM
  relative viability: 0.422
[21]; first compound 0.3162 µM
  relative viability: 0.329
[22]; first compound 0.01 µM
  relative viability: 0.467
[22]; first compound 0.03162 µM
  relative viability: 0.464
[22]; first compound 0.3162 µM
  relative viability: 0.51
[23]; first compound 0.01 µM
  relative viability: 0.757
[23]; first compound 0.03162 µM
  relative viability: 0.689
[23]; first compound 0.3162 µM
  relative viability: 0.739
